The values that follow come from patent publication US8748395B2, “Cell-permeable peptide inhibitors of the JNK signal transduction pathway” (Xigen Inflammation Ltd., priority 2006, dated 2014).

Square brackets hold non-standard residues; d marks the D form. Peptide text beside a SMILES is read from it.

For test [1], the system named is recombinant JNK1, JNK2 and JNK3. Nature of the test: Solid phase kinase assay: JNK-mediated phosphorylation of c-Jun, ATF2 and Elk1. The test is classed as biochemical. The following applies: GST-Jun (aa 1-73), 0-250 μM dosage study; fold less efficient. The protocol:
The effects of the peptides on JNKs-mediated phosphorylation of their target transcription factors were investigated in vitro. Recombinant and non activated JNK1, JNK2 and JNK3 were produced using a TRANSCRIPTION AND TRANSLATION rabbit reticulocyte lysate kit (PROMEGA®) and used in solid phase kinase assays with c-jun, ATF2 and Elk1, either alone or fused to glutathione-S-transferase (GST), as substrates. Dose response studies were performed wherein inventive L-TAT or L-TAT-IB1(s) peptides (0-25 μM) were mixed with the recombinant JNK1, JNK2, or JNK3 kinases in reaction buffer (20 mM Tris-acetate, 1 mM EGTA, 10 mM p-nitrophenyl-phosphate (pNPP), 5 mM sodium pyrophosphate, 10 mM p-glycerophosphate, 1 mM dithiothreitol) for 20 minutes. The kinase reactions were then initiated by the addition of 10 mM MgCl2 and 5 pCi^33P-γ-dATP and 1 μg of either GST-Jun (aa 1-89), GST-AFT2 (aa 1-96) or GST-ELK1 (aa 307-428). GST-fusion proteins were purchased from Stratagene (La Jolla, Calif.).
Ten μL of glutathione-agarose beads were also added to the mixture. Reaction products were then separated by SDS-PAGE on a denaturing 10% polyacrylamide gel. Gels were dried and subsequently exposed to X-ray films (Kodak).
The ability of D-TAT, inventive D-TAT-IB1(s) and inventive L-TAT-IB1 (s) peptides (0-250 μM dosage study) to inhibit GST-Jun (aa 1-73) phosphorylation by recombinant JNK1, JNK2, and JNK3 by were analyzed as described above. Overall, D-TAT-IB1(s) peptide decreased JNK-mediated phosphorylation of c-Jun, but at levels approximately 10-20 fold less efficiently than L-TAT-IB1(s).

The subject of a further test is WiDr cells. Description: Irradiation (30 Gy) induced apoptosis of WiDr cells. The test is classed as cell-based, human. The note with it: 1 μM added 30 minutes before 30 Gy, analyzed 48 hours later. The protocol:
JNK is also activated by ionizing radiation. To determine whether inventive TAT-IB(s) peptides would provide protection against radiation-induced JNK damage, “WiDr” cells were irradiated (30 Gy) in presence or absence of D-TAT, inventive L-TAT-IB1(s) or inventive D-TAT-IB1(s) peptides (1 μM added 30 minutes before irradiation). Control cells (CTRL) were not irradiated. Cells were analyzed 48 hours later by means of PI and Hoechst 3342 staining, as described above. N=3, SEM are indicated.

In test [2] the test system is cortical neuronal culture. Description: LDH release from cortical neuronal cultures following NMDA stimulation. The test is classed as cell-based, rat. The following applies: 5 μM peptide, 30 min pre-treatment, 12 h of 100 μM NMDA. The protocol: The neuroprotective effect of the D-TAT-IB (generic)(s)/D-JNKI1 peptide (SEQ ID NO: 12) was evaluated in sister cultures pre-treated for 30 min with the indicated concentrations of peptides or MK-801 before continuous exposure to 100 μM NMDA.
Cortical neuronal culture. We dissected small pieces of cortex from the brains of two day old rat pups, incubated them with 200 units of papain for 30 min at 34° C., and then plated the neurons at densities of approximately 1×10^6 cells/plate on dishes pre-coated with 100 μg/ml poly-D-lysine. The plating medium consisted of B27/Neurobasal (Life Technologies, Gaithersburg, Md.) supplemented with 0.5 mM glutamine, 100 U/ml penicillin and 100 ug/ml streptomycin.
Lactate dehydrogenate (LDH) cytotoxicity assay. LDH released into the bathing medium 12, 24 and 48 h after NMDA administration was measured using the Cytotox 96 non- radioactive cytotoxicity assay kit (PROMEGA®, WI) (see FIG. 5).
In general terms: LDH leaks from cells whose membrane has failed.

For test [3], the system named is endogenous JNK activity in HepG2 cells. Nature of the test: Inhibition of endogenous JNK activity in HepG2 cells, AlphaScreen all-in one well approach. The test is classed as cell-based. Here is the method: HepG2 cells were seeded at 3'000 cells/well the day prior the experiment. Then, increasing concentrations of either interleukin-1β [IL-1β(ν)] or tumor necrosis factor α [TNFα(●)] (a) were added to activate JNK for 30 minutes. Cells were lysed in 20 mM Hepes, 0.5% Tween pH 7.4 and processed for AlphaScreen JNK. (b) Z′ for the JNK activity induced by 10 ng/ml IL-1β and measured in 384 wells/plate (n=96). (c) Inhibition of endogenous IL-1β-induced JNK activity with chemical JNK inhibitors [staurosporin (°) and SP600125 (●)]. (d) Effect of peptidic inhibitors L-TAT-IB1(s) according to SEQ ID NO: 9 [here abbreviated as L-JNKi (ν)) and D-TAT-IB1(s) according to SEQ ID NO: 11 (here abbreviated as D-JNKi (♦)) and JBDs (●) (corresponds to L-JNKI without the TAT sequence)] on IL-1α dependent JNK activity. All panels are representative of three independent experiments (n=3).
Methods: Alphascreen Kinase Assay
Principle: AlphaScreen is a non-radioactive bead-based technology used to study biomolecular interactions in a microplate format. The acronym ALPHA stands for Amplified Luminescence Proximity Homogenous Assay. […]
Kinase reagents (B-GST-cJun, anti P-cJun antibody and active JNK3) were first diluted in kinase buffer (20 mM Tris-HCl pH 7.6, 10 mM MgCl2, 1 mM DTT, 100 μM Na3VO4, 0.01% Tween-20) and added to wells (15 μl). […] AlphaScreen signal was analyzed directly on the Fusion or En Vision apparatus.
On the technique in general: Alpha assays give light when donor and acceptor beads are brought close together.

Turning to `CC(C)C[C@@H](NC(=O)[C@@H](Cc1ccccc1)NC(=O)[C@H]1CCCN1C(=O)[C@@H](CCC(N)=O)NC(=O)[C@H](NC(=O)[C@H]1CCCN1C(=O)[C@@H](CCCNC(=N)N)NC(=O)[C@@H](CO)NC(=O)[C@@H](CCC(N)=O)NC(=O)[C@H](N)CC(=O)O)C(C)C)C(=O)N[C@H](CC(N)=O)C(=O)N[C@H](CC(C)C)C(=O)N[C@@H](C(=O)N[C@@H](C(=O)N1CCC[C@@H]1C(=O)N[C@H](CCCNC(=N)N)C(=O)N[C@H](CCCCN)C(=O)N1CCC[C@@H]1C(=O)N[C@H](CCCNC(=N)N)C(=O)N1CCC[C@@H]1C(=O)N1CCC[C@@H]1C(=O)N[C@H](CCCNC(=N)N)C(=O)N[C@H](CCCNC(=N)N)C(=O)N[C@H](CCCNC(=N)N)C(=O)N[C@H](CCC(N)=O)C(=O)N[C@H](CCCNC(=N)N)C(=O)N[C@H](CCCNC(=N)N)C(=O)N[C@H](CCCCN)C(=O)N[C@H](CCCCN)C(=O)N[C@H](CCCNC(=N)N)C(=O)NCC(=O)O)[C@H](C)O)[C@H](C)O` [D-TAT-IB1(s)] (H-[dD][dQ][dS][dR][dP][dV][dQ][dP][dF][dL][dN][dL][dT][dT][dP][dR][dK][dP][dR][dP][dP][dR][dR][dR][dQ][dR][dR][dK][dK][dR]G-OH), the “decrease of JNK-mediated phosphorylation of c-Jun, efficiency relative to L-TAT-IB1(s)” value in test [1] is given as 10-20 fold. Further, the “prevention of irradiation induced apoptosis” value with WiDr cells is recorded as “able to prevent irradiation induced apoptosis”. The “degenerative changes due to NMDA exposure (LDH release above controls)” value in test [2] was “degenerative changes due to NMDA exposure were completely inhibited”. In addition, in test [3], the “inhibition of IL-1β-induced endogenous JNK activity” value is listed as “effectively inhibits JNK activity, even better than L-TAT-IB1(s)”.
